{
  "source": "ChEMBL document CHEMBL1159232",
  "about": "“Bipolal: anti-microalgal compound isolated as a candidate for marine antifouling produced by Bipolaris sp. F5206” (1995)",
  "test_system": "Trichophyton mentagrophytes",
  "test": "Antimicrobial activity against Trichophyton mentagrophytes by microbroth dilution method",
  "format": "functional",
  "data": [
    {"smiles": "C=C(C=O)[C@]1(O)C[C@@]2(C)C(=CC1=O)C=C[C@H](OC(=O)/C=C/C=C/[C@@H](C)CC)[C@@H]2C", "values": [
      {"measurement": "MIC", "result": 1.58, "unit": "µg/mL"}
    ]}
  ]
}
